Test results taken from PubChem BioAssay (NCI).
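Dose response: 5 concentrations. Exposure: 48 h. Format: 96-well plates. Endpoint: linear interpolation; highest concentration if not reached. TGI is the concentration that stops growth completely.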

How the values were obtained:
Experiment in all cases: NCI tumour cell line growth inhibition, 48 h
786-0 renal = tested on: 786-0 renal
A498 renal = tested on: A498 renal
A549 NSCLC = tested on: A549 NSCLC
ACHN renal = tested on: ACHN renal
BT-549 breast = tested on: BT-549 breast
CAKI-1 renal = tested on: CAKI-1 renal
CCRF-CEM leukemia = tested on: CCRF-CEM leukemia
COLO 205 colon = tested on: COLO 205 colon
DLD-1 colon = tested on: DLD-1 colon
DMS 114 small cell lung = tested on: DMS 114 small cell lung
DMS 273 small cell lung = tested on: DMS 273 small cell lung
DU-145 prostate = tested on: DU-145 prostate
EKVX NSCLC = tested on: EKVX NSCLC
HCC-2998 colon = tested on: HCC-2998 colon
HCT-116 colon = tested on: HCT-116 colon
HCT-15 colon = tested on: HCT-15 colon
HL-60(TB) leukemia = tested on: HL-60(TB) leukemia
HOP-18 NSCLC = tested on: HOP-18 NSCLC
HOP-62 NSCLC = tested on: HOP-62 NSCLC
HOP-92 NSCLC = tested on: HOP-92 NSCLC
HS 578T breast = tested on: HS 578T breast
HT29 colon = tested on: HT29 colon
IGROV1 ovarian = tested on: IGROV1 ovarian
K-562 leukemia = tested on: K-562 leukemia
KM12 colon = tested on: KM12 colon
KM20L2 colon = tested on: KM20L2 colon
LOX IMVI melanoma = tested on: LOX IMVI melanoma
LXFL 529 NSCLC = tested on: LXFL 529 NSCLC
M14 melanoma = tested on: M14 melanoma
M19-MEL melanoma = tested on: M19-MEL melanoma
MALME-3M melanoma = tested on: MALME-3M melanoma
MCF7 breast = tested on: MCF7 breast
MDA-MB-231 breast = tested on: MDA-MB-231 breast
MDA-MB-435 = tested on: MDA-MB-435
MDA-N = tested on: MDA-N
MOLT-4 leukemia = tested on: MOLT-4 leukemia
NCI-H226 lung = tested on: NCI-H226 lung
NCI-H23 lung = tested on: NCI-H23 lung
NCI-H460 lung = tested on: NCI-H460 lung
NCI-H522 lung = tested on: NCI-H522 lung
NCI/ADR-RES ovarian = tested on: NCI/ADR-RES ovarian
OVCAR-3 ovarian = tested on: OVCAR-3 ovarian
OVCAR-4 ovarian = tested on: OVCAR-4 ovarian
OVCAR-5 ovarian = tested on: OVCAR-5 ovarian
OVCAR-8 ovarian = tested on: OVCAR-8 ovarian
PC-3 prostate = tested on: PC-3 prostate
RPMI-8226 leukemia = tested on: RPMI-8226 leukemia
RXF 393 renal = tested on: RXF 393 renal
RXF-631 renal = tested on: RXF-631 renal
SF-268 CNS = tested on: SF-268 CNS
SF-295 CNS = tested on: SF-295 CNS
SF-539 CNS = tested on: SF-539 CNS
SK-MEL-2 melanoma = tested on: SK-MEL-2 melanoma
SK-MEL-28 melanoma = tested on: SK-MEL-28 melanoma
SK-MEL-5 melanoma = tested on: SK-MEL-5 melanoma
SK-OV-3 ovarian = tested on: SK-OV-3 ovarian
SN12C renal = tested on: SN12C renal
SNB-19 CNS = tested on: SNB-19 CNS
SNB-75 CNS = tested on: SNB-75 CNS
SNB-78 CNS = tested on: SNB-78 CNS
SR leukemia = tested on: SR leukemia
SW-620 colon = tested on: SW-620 colon
T-47D breast = tested on: T-47D breast
TK-10 renal = tested on: TK-10 renal
U251 CNS = tested on: U251 CNS
UACC-257 melanoma = tested on: UACC-257 melanoma
UACC-62 melanoma = tested on: UACC-62 melanoma
UO-31 renal = tested on: UO-31 renal
XF 498 CNS = tested on: XF 498 CNS
P388 leukemia = tested on: P388 leukemia
P388/ADR leukemia = tested on: P388/ADR leukemia
SN12K1 renal = tested on: SN12K1 renal

CN1C(c2ccccc2)CC(=NOCc2ccccc2)CC1c1ccccc1 (stereo not given)
TGI (786-0 renal): 53.7 µM
TGI (A498 renal): 68.8 µM
TGI (A549 NSCLC): 43 µM
TGI (ACHN renal): 69.1 µM
TGI (BT-549 breast): 30.6 µM
TGI (CAKI-1 renal): > 80 µM
TGI (CCRF-CEM leukemia): 70.8 µM
TGI (COLO 205 colon): 88.6 µM
TGI (DLD-1 colon): > 100 µM
TGI (DMS 114 small cell lung): 33.1 µM
TGI (DMS 273 small cell lung): > 100 µM
TGI (DU-145 prostate): > 100 µM
TGI (EKVX NSCLC): > 69.3 µM
TGI (HCC-2998 colon): > 100 µM
TGI (HCT-116 colon): 37.6 µM
TGI (HCT-15 colon): 49.2 µM
TGI (HL-60(TB) leukemia): 48.8 µM
TGI (HOP-18 NSCLC): > 100 µM
TGI (HOP-62 NSCLC): > 73.3 µM
TGI (HOP-92 NSCLC): 81 µM
TGI (HS 578T breast): > 73.3 µM
TGI (HT29 colon): 62.2 µM
TGI (IGROV1 ovarian): 62.1 µM
TGI (K-562 leukemia): 44.3 µM
TGI (KM12 colon): 47.9 µM
TGI (KM20L2 colon): > 100 µM
TGI (LOX IMVI melanoma): 29.9 µM
TGI (LXFL 529 NSCLC): 30.8 µM
TGI (M14 melanoma): > 78 µM
TGI (M19-MEL melanoma): > 100 µM
TGI (MALME-3M melanoma): > 87.8 µM
TGI (MCF7 breast): > 56.8 µM
TGI (MDA-MB-231 breast): > 100 µM
TGI (MDA-MB-435): 39.2 µM
TGI (MDA-N): > 56.3 µM
TGI (MOLT-4 leukemia): 71.2 µM
TGI (NCI-H226 lung): 84.8 µM
TGI (NCI-H23 lung): 71.5 µM
TGI (NCI-H460 lung): 39.9 µM
TGI (NCI-H522 lung): 56 µM
TGI (NCI/ADR-RES ovarian): 42.4 µM
TGI (OVCAR-3 ovarian): 58.7 µM
TGI (OVCAR-4 ovarian): 48.9 µM
TGI (OVCAR-5 ovarian): > 100 µM
TGI (OVCAR-8 ovarian): 44.9 µM
TGI (PC-3 prostate): > 66.3 µM
TGI (RPMI-8226 leukemia): > 100 µM
TGI (RXF 393 renal): > 84.7 µM
TGI (RXF-631 renal): > 61.9 µM
TGI (SF-268 CNS): 50.4 µM
TGI (SF-295 CNS): > 74.8 µM
TGI (SF-539 CNS): > 75.6 µM
TGI (SK-MEL-2 melanoma): > 95.4 µM
TGI (SK-MEL-28 melanoma): > 76.3 µM
TGI (SK-MEL-5 melanoma): 70.6 µM
TGI (SK-OV-3 ovarian): > 96.9 µM
TGI (SN12C renal): 62 µM
TGI (SNB-19 CNS): > 56.2 µM
TGI (SNB-75 CNS): 62.1 µM
TGI (SNB-78 CNS): > 100 µM
TGI (SR leukemia): 87.1 µM
TGI (SW-620 colon): > 75.4 µM
TGI (T-47D breast): 36 µM
TGI (TK-10 renal): 70.9 µM
TGI (U251 CNS): 55.2 µM
TGI (UACC-257 melanoma): > 97 µM
TGI (UACC-62 melanoma): > 76.3 µM
TGI (UO-31 renal): > 73.7 µM
TGI (XF 498 CNS): > 100 µM

COc1ccc(-c2nc3ccc([N+](=O)[O-])cc3c(=O)[nH]2)cc1
TGI (A498 renal): > 100 µM
TGI (A549 NSCLC): > 100 µM
TGI (CAKI-1 renal): > 86.7 µM
TGI (CCRF-CEM leukemia): > 100 µM
TGI (COLO 205 colon): > 100 µM
TGI (DLD-1 colon): > 100 µM
TGI (DMS 114 small cell lung): > 100 µM
TGI (DMS 273 small cell lung): > 100 µM
TGI (EKVX NSCLC): > 100 µM
TGI (HCC-2998 colon): > 100 µM
TGI (HCT-116 colon): > 79.4 µM
TGI (HCT-15 colon): > 100 µM
TGI (HL-60(TB) leukemia): > 100 µM
TGI (HOP-18 NSCLC): > 100 µM
TGI (HOP-62 NSCLC): > 67.7 µM
TGI (HOP-92 NSCLC): 45.8 µM
TGI (HT29 colon): > 100 µM
TGI (IGROV1 ovarian): 71.5 µM
TGI (K-562 leukemia): > 100 µM
TGI (KM12 colon): > 100 µM
TGI (KM20L2 colon): > 100 µM
TGI (LOX IMVI melanoma): > 100 µM
TGI (M19-MEL melanoma): > 100 µM
TGI (MCF7 breast): > 100 µM
TGI (MOLT-4 leukemia): > 100 µM
TGI (NCI-H226 lung): 59.1 µM
TGI (NCI-H23 lung): > 86.8 µM
TGI (NCI-H460 lung): > 100 µM
TGI (NCI-H522 lung): 90.5 µM
TGI (NCI/ADR-RES ovarian): > 100 µM
TGI (OVCAR-3 ovarian): 64.3 µM
TGI (OVCAR-4 ovarian): 33.4 µM
TGI (OVCAR-5 ovarian): > 100 µM
TGI (OVCAR-8 ovarian): > 72.2 µM
TGI (P388 leukemia): > 100 µM
TGI (P388/ADR leukemia): > 100 µM
TGI (RPMI-8226 leukemia): > 100 µM
TGI (RXF 393 renal): > 75.6 µM
TGI (SF-268 CNS): 67.3 µM
TGI (SF-295 CNS): > 63.3 µM
TGI (SF-539 CNS): 29.7 µM
TGI (SK-MEL-2 melanoma): > 100 µM
TGI (SK-MEL-28 melanoma): > 100 µM
TGI (SK-MEL-5 melanoma): > 100 µM
TGI (SK-OV-3 ovarian): 29.3 µM
TGI (SN12C renal): > 100 µM
TGI (SN12K1 renal): > 86.5 µM
TGI (SNB-19 CNS): 55.3 µM
TGI (SNB-75 CNS): 31 µM
TGI (SNB-78 CNS): 71.8 µM
TGI (SW-620 colon): > 100 µM
TGI (U251 CNS): > 64.3 µM
TGI (UACC-257 melanoma): > 100 µM
TGI (UACC-62 melanoma): > 100 µM
TGI (UO-31 renal): > 100 µM
TGI (XF 498 CNS): 46.3 µM
